From patent publication US20230151025A1, “SUBSTITUTED THIAZOLOPYRIDINES, SALTS THEREOF AND THEIR USE AS HERBICIDALLY ACTIVE SUBSTANCES” (Bayer Aktiengesellschaft, priority 2020, published 2023)

How the values were obtained:
Type in all cases: in vivo
[1] = system: Amaranthus retroflexus (AMARE); test: Herbicidal post-emergence action (D), 320 g/ha; details: ca. 3 weeks
Outline: (§1)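 Visual % herbicidal effect vs untreated controls (100% = dead, 0% = like control), rated ca. 3 weeks after post-emergence spray. Plants treated at single-leaf stage, 2 to 3 weeks after sowing in sandy loam; aqueous WP/EC spray, 0.5% additive, 600 l water/ha.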

[2] = system: Abutilon theophrasti (ABUTH); test: Herbicidal post-emergence action (D), 320 g/ha; details: ca. 3 weeks
Outline: as §1

Veronica persica (VERPE) [3] = test: Herbicidal post-emergence action (D), 320 g/ha; details: ca. 3 weeks
Outline: as §1

Setaria viridis (SETVI) [4] = test: Herbicidal post-emergence action (D), 320 g/ha; details: ca. 3 weeks
Outline: as §1

Lolium rigidum (LOLRI) [5] = test: Herbicidal post-emergence action (D), 320 g/ha; details: ca. 3 weeks
Outline: as §1

[6] = system: Echinochloa crus-galli (ECHCG); test: Herbicidal post-emergence action (D), 320 g/ha; details: ca. 3 weeks
Outline: as §1

[7] = system: Matricaria inodora (MATIN); test: Herbicidal post-emergence action (D), 320 g/ha; details: single-leaf stage, assessed visually after ca. 3 weeks vs untreated controls, 100% = plants have died off, 0% = as control plants
Outline: as §1

Stellaria media (STEME) [8] = test: Herbicidal post-emergence action (D), 320 g/ha; details: ca. 3 weeks
Outline: as §1

[9] = system: Alopecurus myosuroides (ALOMY); test: Herbicidal post-emergence action (D), 320 g/ha; details: ca. 3 weeks
Outline: as §1

Viola tricolor (VIOTR) [10] = test: Herbicidal post-emergence action (D), 320 g/ha; details: ca. 3 weeks
Outline: as §1

[11] = system: Polygonum convolvulus (POLCO); test: Herbicidal post-emergence action (D), 320 g/ha; details: ca. 3 weeks
Outline: as §1

Avena fatua [12] = test: Herbicidal post-emergence action (D), 320 g/ha; details: ca. 3 weeks
Description: (§2) Seeds of mono- and dicotyledonous weed plants and crop plants were sown, in plastic or organic planting pots, in sandy loam, covered with soil and grown in a greenhouse under controlled growth conditions. 2 to 3 weeks after sowing, the test plants were sprayed in the single-leaf stage. The compounds according to the invention, formulated in form of wettable powders (WP) or as emulsifiable concentrates (EC), were sprayed onto the green plant parts as aqueous suspension or emulsion, with the addition of 0.5% of an additive, at an application rate of 600 l of water/ha (converted). The test plants were placed in the greenhouse for ca. 3 weeks under optimum growth conditions, and then the effect of the preparations was assessed visually in comparison with untreated controls (herbicidal effect in percent (%): 100% effect=plants have died off, 0% effect=as control plants).
(§3) Tables D1 to D13 below show the effects of selected compounds of the general formula (I) according to table 1 on various harmful plants and an application rate corresponding to 320 g/ha obtained by the experimental procedure mentioned above.

[13] = system: Digitaria sanguinalis (DIGSA); test: Herbicidal post-emergence action (D), 320 g/ha; details: ca. 3 weeks
Description: as §2, §3

Avena fatua [14] = test: Herbicidal pre-emergence action (C), 320 g/ha; details: ca. 3 weeks
Description: (§4) Seeds of mono- and dicotyledonous weed plants and crop plants were sown, in plastic or organic planting pots, in sandy loam and covered with soil. The compounds according to the invention, formulated in the form of wettable powders (WP) or as emulsifiable concentrates (EC), were applied to the surface of the covering soil as aqueous suspension or emulsion, with the addition of 0.5% of an additive, at an application rate of 600 l of water/ha (converted).
(§5) Following treatment, the pots were placed in a greenhouse and kept under optimum growth conditions for the test plants. The visual grading of the damage to the test plants was carried out after ca. 3 weeks in comparison to untreated controls (herbicidal effect in percent (%): 100% effect=plants have died off, 0% effect=as control plants).
(§6) Tables C1 to C13 below show the effects of selected compounds of the general formula (I) according to table 1 on various harmful plants and an application rate corresponding to 320 g/ha obtained by the experimental procedure mentioned above.

[15] = system: Digitaria sanguinalis (DIGSA); test: Herbicidal pre-emergence action (C), 320 g/ha; details: ca. 3 weeks
Description: as §4, §5, §6

[16] = system: Amaranthus retroflexus (AMARE); test: Herbicidal pre-emergence action (C), 320 g/ha; details: ca. 3 weeks
Outline: (§7)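 Pre-emergence greenhouse test: visual damage rating at about 3 weeks relative to untreated plants, 100% meaning death and 0% no effect. Compounds, as wettable powders or emulsifiable concentrates with 0.5% additive, were applied at 320 g/ha (600 l water/ha) onto soil covering seeds sown in sandy loam.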

[17] = system: Abutilon theophrasti (ABUTH); test: Herbicidal pre-emergence action (C), 320 g/ha; details: ca. 3 weeks
Outline: as §7

Veronica persica (VERPE) [18] = test: Herbicidal pre-emergence action (C), 320 g/ha; details: ca. 3 weeks
Outline: as §7

Setaria viridis (SETVI) [19] = test: Herbicidal pre-emergence action (C), 320 g/ha; details: ca. 3 weeks
Outline: as §7

Lolium rigidum (LOLRI) [20] = test: Herbicidal pre-emergence action (C), 320 g/ha; details: ca. 3 weeks
Outline: as §7

[21] = system: Echinochloa crus-galli (ECHCG); test: Herbicidal pre-emergence action (C), 320 g/ha; details: ca. 3 weeks
Outline: as §7

[22] = system: Matricaria inodora (MATIN); test: Herbicidal pre-emergence action (C), 320 g/ha; details: ca. 3 weeks
Outline: as §7

Stellaria media (STEME) [23] = test: Herbicidal pre-emergence action (C), 320 g/ha; details: visual grading after ca. 3 weeks vs untreated controls, 100% = plants have died off, 0% = as control plants
Outline: as §7

[24] = system: Alopecurus myosuroides (ALOMY); test: Herbicidal pre-emergence action (C), 320 g/ha; details: ca. 3 weeks
Outline: as §7

Viola tricolor (VIOTR) [25] = test: Herbicidal pre-emergence action (C), 320 g/ha; details: ca. 3 weeks
Outline: as §7

[26] = system: Polygonum convolvulus (POLCO); test: Herbicidal pre-emergence action (C), 320 g/ha; details: ca. 3 weeks
Outline: as §7

[27] = system: Amaranthus retroflexus (AMARE); test: Herbicidal post-emergence action (B), 1280 g/ha; details: rated visually after about 3 weeks vs untreated controls
Outline: (§8)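 Post-emergence spray, one-leaf stage; WP/EC formulation, aqueous, 0.5% additive, 600 L/ha water. Sandy loam, greenhouse, doubly sown pots. Visual % rating vs untreated control at ~3 weeks (100% = dead).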

Poa annua (POAAN) [28] = test: Herbicidal post-emergence action (B), 1280 g/ha; details: rated visually after about 3 weeks vs untreated controls
Outline: as §8

[29] = system: Abutilon theophrasti (ABUTH); test: Herbicidal post-emergence action (B), 1280 g/ha; details: rated visually after about 3 weeks vs untreated controls
Outline: as §8

Veronica persica (VERPE) [30] = test: Herbicidal post-emergence action (B), 1280 g/ha
Outline: as §8

[31] = system: Echinochloa crus-galli (ECHCG); test: Herbicidal post-emergence action (B), 1280 g/ha; details: rated visually after about 3 weeks vs untreated controls
Outline: as §8

[32] = system: Kochia scoparia (KCHSC; Bassia scoparia); test: Herbicidal post-emergence action (B), 1280 g/ha
Outline: as §8

Stellaria media (STEME) [33] = test: Herbicidal post-emergence action (B), 1280 g/ha
Outline: as §8

[34] = system: Alopecurus myosuroides (ALOMY); test: Herbicidal post-emergence action (B), 1280 g/ha; details: rated visually after about 3 weeks vs untreated controls
Outline: as §8

Poa annua (POAAN) [35] = test: Herbicidal pre-emergence action (A), 1280 g/ha; details: visual grading after ca. 3 weeks vs untreated controls, 100% = plants have died off, 0% = as control plants
Outline: (§9)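 Seeds were sown in sandy loam pots (one mono- and one dicot weed per pot) and covered with soil; WP or EC formulations were applied to the soil surface as aqueous suspension/emulsion with 0.5% additive at 600 l water/ha. Damage was scored visually after ca. 3 weeks versus untreated controls (0% = control, 100% = dead).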

Veronica persica (VERPE) [36] = test: Herbicidal pre-emergence action (A), 1280 g/ha; details: visual grading after ca. 3 weeks vs untreated controls
Outline: as §9

Setaria viridis (SETVI) [37] = test: Herbicidal pre-emergence action (A), 1280 g/ha; details: visual grading after ca. 3 weeks vs untreated controls
Outline: as §9

Lolium rigidum (LOLRI) [38] = test: Herbicidal pre-emergence action (A), 1280 g/ha; details: visual grading after ca. 3 weeks vs untreated controls, 100% = plants have died off, 0% = as control plants
Outline: as §9

[39] = system: Echinochloa crus-galli (ECHCG); test: Herbicidal pre-emergence action (A), 1280 g/ha; details: visual grading after ca. 3 weeks vs untreated controls, 100% = plants have died off, 0% = as control plants
Outline: as §9

[40] = system: Kochia scoparia (KCHSC; Bassia scoparia); test: Herbicidal pre-emergence action (A), 1280 g/ha; details: visual grading after ca. 3 weeks vs untreated controls
Outline: as §9

[41] = system: Matricaria inodora (MATIN); test: Herbicidal pre-emergence action (A), 1280 g/ha; details: visual grading after ca. 3 weeks vs untreated controls
Outline: as §9

Stellaria media (STEME) [42] = test: Herbicidal pre-emergence action (A), 1280 g/ha; details: visual grading after ca. 3 weeks vs untreated controls
Outline: as §9

[43] = system: Alopecurus myosuroides (ALOMY); test: Herbicidal pre-emergence action (A), 1280 g/ha; details: visual grading after ca. 3 weeks vs untreated controls, 100% = plants have died off, 0% = as control plants
Outline: as §9

SMILES | herbicidal effect AMARE [1] | herbicidal effect ABUTH [2] | herbicidal effect VERPE (Veronica persica (VERPE) [3]) | herbicidal effect SETVI (Setaria viridis (SETVI) [4]) | herbicidal effect LOLRI (Lolium rigidum (LOLRI) [5]) | herbicidal effect ECHCG [6] | herbicidal effect ALOMY [9] | herbicidal effect VIOTR (Viola tricolor (VIOTR) [10]) | herbicidal effect POLCO [11] | herbicidal effect AVEFA (Avena fatua [12]) | herbicidal effect DIGSA [13] | herbicidal effect AMARE [16] | herbicidal effect ABUTH [17] | herbicidal effect VERPE (Veronica persica (VERPE) [18]) | herbicidal effect SETVI (Setaria viridis (SETVI) [19]) | herbicidal effect LOLRI (Lolium rigidum (LOLRI) [20]) | herbicidal effect ECHCG [21] | herbicidal effect MATIN [22] | herbicidal effect ALOMY [24] | herbicidal effect POLCO [26] | also measured
Cc1cc2scnc2nc1-c1ccccc1F [Example I-002] | 90% | 80% | 80% | 90% | 80% | 100% | 90% | 80% | 90% | 80% | 90% | 90% | 90% | 90% | 100% | 100% | 100% | 90% | 100% | 90% | MATIN, herbicidal effect in percent (%) [7]: 80%; herbicidal effect STEME (Stellaria media (STEME) [8]): 90%; herbicidal effect AVEFA (Avena fatua [14]): 100%; herbicidal effect DIGSA [15]: 100%; STEME, herbicidal effect in percent (%) (Stellaria media (STEME) [23]): 90%; herbicidal effect VIOTR (Viola tricolor (VIOTR) [25]): 80%
Cc1ccccc1-c1nc2ncsc2cc1C [Example I-018] | 90% |  | 80% | 80% |  |  | 90% | 90% | 100% |  | 90% | 90% | 80% | 90% | 100% | 100% | 100% | 90% | 100% | 90% | herbicidal effect DIGSA [15]: 100%
Fc1cccc(F)c1-c1nc2ncsc2cc1Cl [Example I-087] |  | 80% | 90% | 90% | 80% | 90% | 90% | 80% | 90% | 80% |  | 80% | 90% | 90% | 100% | 100% | 100% | 90% | 100% | 90% | herbicidal effect AVEFA (Avena fatua [14]): 80%; herbicidal effect VIOTR (Viola tricolor (VIOTR) [25]): 80%
Cc1ccsc1-c1nc2ncsc2cc1Cl [Example I-192] |  |  | 80% | 80% |  | 100% | 90% |  |  | 80% |  | 100% |  | 90% | 100% | 100% | 100% |  | 100% |  | herbicidal activity AMARE [27]: 100%; herbicidal activity POAAN (Poa annua (POAAN) [28]): 90%; herbicidal activity ABUTH [29]: 100%; herbicidal effect VERPE (Veronica persica (VERPE) [30]): 100%; herbicidal activity ECHCG [31]: 100%; herbicidal effect KCHSC [32]: 90%; herbicidal effect STEME (Stellaria media (STEME) [33]): 90%; herbicidal activity ALOMY [34]: 100%; POAAN, herbicidal effect in percent (%) (Poa annua (POAAN) [35]): 100%; herbicidal effect VERPE (Veronica persica (VERPE) [36]): 90%; herbicidal effect SETVI (Setaria viridis (SETVI) [37]): 100%; LOLRI, herbicidal effect in percent (%) (Lolium rigidum (LOLRI) [38]): 100%; ECHCG, herbicidal effect in percent (%) [39]: 100%; herbicidal effect KCHSC [40]: 100%; herbicidal effect MATIN [41]: 100%; herbicidal effect STEME (Stellaria media (STEME) [42]): 100%; ALOMY, herbicidal effect in percent (%) [43]: 100%
